Measured values published in US20230277508A1, “USE OF COMPOUND AS CYP2E1 INHIBITOR” (SHANGHAI LING XI BIOTECHNOLOGY DEVELOPMENT CO., LTD., priority 2020, published 2023).

Columns and labels:
[1] = tested on: CFA-induced rheumatoid arthritis in rats; experiment: CFA-induced rat rheumatoid arthritis model; format: in vivo, SD rat; settings: for rat foot swelling alleviation rate: at 36 h
Description: Experimental method: An SD rat rheumatoid arthritis model was constructed with CFA (0.1 mL/rat). The SMI0 intervention group was divided into an ultra-low-dose group, a low-dose group, a medium-dose group, and a high-dose group, which were intragastrically administered with the compound SMI0 respectively at 1 mg/kg, 6 mg/kg, 30 mg/kg, and 150 mg/kg every day starting from two days before modeling; and the positive control group was intragastrically administered with celecoxib at 5 mg/kg. 10 animals were provided for each group. 1 d before administration of CFA to the rats, the above grouping and doses were adopted, and then the rats were administered once every day until the modeling was completed on day 10. Each rat was administered with CFA at a sole of a right hindfoot. A volume of each of the right hindfeet of rats was measured every day by a rat foot swelling measuring instrument (which was measured every 12 h in the first 3 days). A foot swelling rate of each rat was calculated according to a change of a right hindfoot volume of the rat relative to a hindfoot volume of the rat before the CFA administration at each time point, and a difference in foot swelling rate between groups of rats was analyzed.

[2] = tested on: cognitive dysfunction in STZ-induced AD rat model; experiment: STZ-induced AD rat model, Morris water maze; format: in vivo, SD rat; settings: for Number of crossing platform / Time spent in the platform quadrant: MWM spatial exploration; for Number of crossing platform / Time spent in the platform quadrant / Incubation period Day 1 / Incubation period Day 2 / Incubation period Day 3 / Incubation period Day 4 / Incubation period Day 5 / Incubation period Day 6: n=15; for Incubation period Day 1 / Incubation period Day 2 / Incubation period Day 3 / Incubation period Day 4 / Incubation period Day 5 / Incubation period Day 6: MWM
Description: Experimental method: A male SD rat AD model was constructed through bilateral intracerebroventricular injection of STZ, where STZ was injected at 3 mg/kg on day 1 and STZ was injected at 1.5 mg/kg on day 3. STZ was injected into bilateral cerebral ventricles (0.9 mm posterior to the anterior fontanelle, 1.5 mm at the left or right of the sagittal suture, and below the brain surface and 3.8 mm to the skull) by a brain stereotaxic instrument. The sham-operated group was injected with a same volume of a control solvent according to same operations. The low-dose and high-dose prevention and treatment groups were intragastrically administered with the compound SMI0 respectively at 10 mg/kg and 30 mg/kg starting from day 11 after modeling, and the administration was conducted consecutively for 21 d. On day 14 of the continuous administration (that is, on […] of modeling), the Morris water maze (MWM) was used to conduct spatial positioning navigation training consecutively for 6 d, and a spatial exploration experiment was conducted 24 h after the spatial positioning navigation training was completed (15 rats in each group).

[3] = biological target: T1, CYP2E1 (Rattus norvegicus, UniProt P05182); experiment: In vivo inhibition of metabolism of DEN by CYP2E1 in rats (toxicokinetics of DEN); parameters: species or system SD rats
T1 construct: from tissue; host or cells: whole animal (SD rats); endogenous enzyme in vivo
T1 sequence (P05182 whole entry): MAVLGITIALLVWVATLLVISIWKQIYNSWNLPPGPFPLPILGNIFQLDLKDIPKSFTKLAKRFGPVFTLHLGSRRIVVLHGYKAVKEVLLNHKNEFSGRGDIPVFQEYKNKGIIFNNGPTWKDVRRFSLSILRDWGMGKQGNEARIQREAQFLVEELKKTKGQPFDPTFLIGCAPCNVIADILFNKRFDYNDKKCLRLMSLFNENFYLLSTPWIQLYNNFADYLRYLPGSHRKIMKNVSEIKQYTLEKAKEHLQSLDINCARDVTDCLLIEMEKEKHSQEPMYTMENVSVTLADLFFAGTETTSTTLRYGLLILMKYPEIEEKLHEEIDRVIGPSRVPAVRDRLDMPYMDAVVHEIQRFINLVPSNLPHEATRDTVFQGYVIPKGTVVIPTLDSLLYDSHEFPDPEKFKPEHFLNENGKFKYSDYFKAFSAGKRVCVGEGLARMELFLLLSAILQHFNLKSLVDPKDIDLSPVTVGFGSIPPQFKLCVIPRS
Description: Experimental method: An inhibitory effect of the compound SMI0 on CYP2E1 in rats was investigated by a self-controlled crossover experiment design. In a first round of experiments, DEN alone was intraperitoneally injected at 50 mg/kg (30 SD rats in total) in the first week; after a one-week interval, a second round of experiments were conducted as follows: each rat was first intragastrically administered with the compound SMI0 at a low, medium, or high dose (6 mg/kg, 30 mg/kg, or 150 mg/kg), and 5 min later, each rat was intraperitoneally injected with DEN at 50 mg/kg (10 rats were set for each of low, medium, and high doses); blood was collected at 2 min, 7 min, 15 min, and 30 min and 1 h, 2 h, 4 h, 6 h, 9 h, 12 h, 24 h, 36 h, 48 h, and 60 h; a DEN concentration in plasma was determined at different blood collection time points, and a toxicokinetic parameter of DEN was calculated; and plasma DEN was detected by high performance liquid chromatography (HPLC) as follows: 100 μL of plasma was added to 10 μL of perchloric acid, a resulting mixture was vortexed for 3 min and then centrifuged at 12,000 rpm for 10 min, and 10 μL of a resulting supernatant was collected and injected into an instrument, where the PLC was conducted with methanol:water=50:50 as a mobile phase and a detection wavelength of 240 nm.

[4] = tested on: GL261 cells / M2 microglial cells; experiment: GL261 cells co-cultivated with M2 microglial cells; format: cell-based, mouse; settings: SMI0 50 μmol/L vs M2 microglial cell co-cultivation group
Description: Experimental method: 10 1-2 d newborn C57BL/6 WT mice and 6 CYP2E1^−/− mice were taken, primary microglial cells and astrocytes were collected and inoculated into 6-well plates, and 24 h later, culture supernatants were taken and co-cultivated with glioma cells. Experimental groups: control group; M2 model group; high-concentration, medium-concentration, and low-concentration SMI0 (50 μmol/L, 12.5 μmol/L, and 3.1 μmol/L) groups; and CYP2E1 gene-knockout group. 24 h later, supernatants were discarded; and […] and IL-13 each were added at 20 ng/mL to induce the transformation of microglial cells into the M2 type in the M2 model group and the high-concentration, medium-concentration, and low-concentration SMI0 groups, and different concentrations of SMI0 (50 μmol/L, 12.5 μmol/L, and 3.1 μmol/L) were also added in the intervention groups. The proliferation of glioma cells was determined by a CCK8 method, and an apoptosis proportion was determined by an Annexin V-FITC-PI apoptosis staining kit.

CC(=O)c1scnc1C [SMI0]
rat foot swelling alleviation rate ([1]; SMI0 1 mg/kg ig daily): 20.8%
rat foot swelling alleviation rate ([1]; SMI0 6 mg/kg ig daily): 34.2%
rat foot swelling alleviation rate ([1]; SMI0 30 mg/kg ig daily): 44.1%
rat foot swelling alleviation rate ([1]; SMI0 150 mg/kg ig daily): 52.5%
rat foot swelling caused by CFA ([1]; SMI0 intervention group vs model group, P<0.001): significantly alleviated
Number of crossing platform ([2]; SMI0 10 mg/kg ig): 5.1
Time spent in the platform quadrant ([2]; SMI0 10 mg/kg ig): 29.4%
Number of crossing platform ([2]; SMI0 30 mg/kg ig): 8.2
Time spent in the platform quadrant ([2]; SMI0 30 mg/kg ig): 39.3%
Incubation period Day 1 ([2]; SMI0 10 mg/kg ig for 21 d): 95.7 s
Incubation period Day 2 ([2]; SMI0 10 mg/kg ig for 21 d): 61.1 s
Incubation period Day 3 ([2]; SMI0 10 mg/kg ig for 21 d): 39.5 s
Incubation period Day 4 ([2]; SMI0 10 mg/kg ig for 21 d): 33.2 s
Incubation period Day 5 ([2]; SMI0 10 mg/kg ig for 21 d): 23.1 s
Incubation period Day 6 ([2]; SMI0 10 mg/kg ig for 21 d): 18.5 s
Incubation period Day 1 ([2]; SMI0 30 mg/kg ig for 21 d): 94.6 s
Incubation period Day 2 ([2]; SMI0 30 mg/kg ig for 21 d): 52.7 s
Incubation period Day 3 ([2]; SMI0 30 mg/kg ig for 21 d): 35.9 s
Incubation period Day 4 ([2]; SMI0 30 mg/kg ig for 21 d): 25.2 s
Incubation period Day 5 ([2]; SMI0 30 mg/kg ig for 21 d): 20.0 s
Incubation period Day 6 ([2]; SMI0 30 mg/kg ig for 21 d): 18.6 s
improvement rate of ICV-STZ-induced cognitive dysfunction ([2]; SMI0 high-dose group (30 mg/kg), vs model group, significant): 46.7%
improvement rate of ICV-STZ-induced cognitive dysfunction ([2]; SMI0 low-dose group (10 mg/kg), without a significant statistical difference): 32.6%
inhibition rate (CL of DEN) ([3]; SMI0 high dose 150 mg/kg ig): 86.77%
inhibition rate (CL of DEN) ([3]; SMI0 low dose 6 mg/kg ig): 62.43%
inhibition rate (CL of DEN) ([3]; SMI0 medium dose 30 mg/kg ig): 80.42%
apoptosis of GL261 cells [4]: promoted
proliferation of GL261 cells ([4]; P<0.001): significantly inhibited
